Values quoted from earlier work in PMC8536644, “Enigmatic mechanism of the N-vinylpyrrolidone hepatocarcinogenicity in the rat” (Archives of Toxicology, 2021).

Tested on: CYP2B
Conditions: ref Waxmann [1999]; Lubet et al. [1985]; Tompkins and Wallac [2007]; cited from earlier work

Structure (SMILES): CCC1(c2ccccc2)C(=O)NC(=O)NC1=O [phenobarbital]
- Increase of hepatic PROD activities: 50 to 140 fold
